# Laboratory results reported in BindingDB's records for doi:10.1016/j.bioorg.2015.04.003 (Comsats Institute of Information Technology, 2015).
# Molecular target: T1, Thymidine phosphorylase (Escherichia coli O157:H7, UniProt Q8XB35)
# T1 sequence (Q8XB35 whole entry): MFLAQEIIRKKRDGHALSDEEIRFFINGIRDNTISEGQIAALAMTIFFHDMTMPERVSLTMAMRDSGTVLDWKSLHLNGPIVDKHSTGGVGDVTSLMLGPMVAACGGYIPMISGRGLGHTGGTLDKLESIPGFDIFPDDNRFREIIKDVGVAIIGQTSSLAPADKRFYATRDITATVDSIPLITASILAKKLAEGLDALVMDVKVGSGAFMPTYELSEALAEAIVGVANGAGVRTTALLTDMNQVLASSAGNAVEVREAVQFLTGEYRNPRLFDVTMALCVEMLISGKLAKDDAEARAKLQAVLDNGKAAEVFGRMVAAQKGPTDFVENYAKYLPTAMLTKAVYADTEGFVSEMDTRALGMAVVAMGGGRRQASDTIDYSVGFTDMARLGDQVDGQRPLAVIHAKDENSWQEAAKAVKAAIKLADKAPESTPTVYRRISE
# Assay: Thymidine Phosphorylase Inhibition Assay
# Conditions: pH 7.4
# Procedure: Briefly, a total reaction mixture of 200 µl contained 145 µl of potassium phosphate buffer (pH 7.4), 30 µl of enzyme at concentration 0.05 and 0.002 U, respectively, were incubated with 5 µl of test materials for 10 min at 25 °C in microplate reader. After incubation, pre read at 290 nm was taken to deduce the absorbance of substrate molecules. Substrate (20 µl, 1.5 mM) was dissolved in potassium phosphate buffer and was immediately added to plate and continuously read after 10, 20, and 30 min in micro-plate reader. All assays were performed in triplicate
row,Compound,IC50
1,"Oc1ccc(-c2nnc(S)o2)cc1 [5(4'-Hydroxyphenyl)-1,3,4-oxadiazole-2(3H)-thione (6)]",38.2 µM
2,"Nc1ccccc1-c1n[nH]c(=S)o1 [5-(2'-Aminophenyl)-1,3,4-oxadiazole-2(3H)-thione (3)]",74.3 µM
3,"Oc1ccccc1-c1nnc(S)o1 [5-(2'-Hydroxyphenyl)-2,3-dihydro-1,3,4-oxadiazole-2-thione (2)]",68.4 µM
4,"COc1cc(-c2n[nH]c(=S)o2)cc(OC)c1OC [5-(3',4',5'-Trimethoxyphenyl)-1,3,4-oxadiazole-2(3H)-thione (8)]",63.4 µM
5,"Sc1nnc(-c2cccc(Cl)c2)o1 [5-(3'-Chlorophenyl)-1,3,4-oxadiazole-2(3H)-thione (10)]",258 µM
6,"Cc1cccc(-c2nnc(S)o2)c1 [5-(3'-Methylphenyl)-1,3,4-oxadiazole-2(3H)-thione (4)]",91.8 µM
7,"S=c1[nH]nc(-c2ccc(Br)cc2)o1 [5-(4'-Bromophenyl)-1,3,4-oxadiazole-2(3H)-thione (12)]",64 µM
8,"S=c1[nH]nc(-c2ccc(Cl)cc2)o1 [5-(4'-Chlorophenyl)-1,3,4-oxadiazole-2(3H)-thione (11)]",64 µM
9,"COc1ccc(-c2n[nH]c(=S)o2)cc1 [5-(4'-Methoxyphenyl)-1,3,4-oxadiazole-2(3H)-thione (7)]",72.4 µM
